Assays:
[1] = test system: patients with psychotic major depression; assay: Double-blind placebo-controlled cross-over study of mifepristone in psychotic major depression; assay type: in vivo, human
Description: The study requires a nine day, closely observed hospital stay. Individuals included in this study were diagnosed as psychotic depressives using criteria as set forth by the DSM-IV, as described above. This diagnosis was confirmed by two psychiatrists. All are between the ages of 18 and 75. Apart from hypercortisolemia, they have no major medical problems. They have no signs of Cushings Syndrome. No […] of childbearing potential are included in the study. Individuals admitting to having used illicit drugs within a month prior to admission for the study are excluded. Individuals admitting to drinking in excess of two ounces of alcohol daily are excluded from the study. No anti-psychotic medication was taken within three days of entering the study. While, concurrent anti-depressant was not a criteria used to excluded anyone from the study, no individual was started on an anti-depressant medication while participating in the study. All patients gave their written consent to a protocol approved by the Human Subjects Committee at Stanford University Medical Center. All participants were given the Hamilton Rating Scale for Depression (HAM-D, Hamilton (1962) J. Neurol. Psychiatry, supra, discussed above) and the Structured Clinical Interview for DSM-IV Axis I mood disorders tests (as described above). Only individuals with a score greater than 21 on the HAM-D test continued in the study (a HAM-D score of >21 indicates moderate to severe depression). […] Formal psychiatric assessment, including the HAM-D rating scale (Overall (1962) supra; Kaplan (1995), supra, discussed above), the Brief Psychiatric Rating Scale (BPRS) (Overall (1962) supra; Kaplan (1995), supra, discussed above) and the […] (GAF) evaluation (DSM-IV, supra, pages 30 to 31; Kaplan, ed. (1995), supra) was carried out on days one, three, five, seven and nine of the study at 10:00 AM (at 1000 hours). A paragraph recall test (see below) was given at 11:30 AM (at 1130 hours) on days one, five and nine. Cortisol levels were measured serially every half hour from […] to 4:00 PM (1300 to 1600 hours) on days one, five and nine. Plasma ACTH and Plasma HVA was measured serially every hour from 1300 to 1600 on days one, five and nine. Routine biological and hematological studies were conducted daily, particularly to screen for evidence of relative adrenal insufficiency, i.e., hypoglycemia, eosinophilia. One means used to assess/measure improvement, or amelioration of psychosis in the study was the “Wallach Recognition Test” (a paragraph recall test). Newly evaluated individuals with an initial diagnosis of psychotic major depression, diagnosed as described above, were given a recognition task adapted from Wallach (1980) supra. Subjects listened to a taped recording of a sixteen-word list presented at the rate of one word every ten seconds. The-subject repeats each of the sixteen words and is asked to think of what the words mean to them. Following the presentation of the list, the subject engages in a twenty minute motor distraction task. The subject then listens to a fifty-word list containing the sixteen original target words plus thirty-four background distraction words. The subject then is asked to discern between target words and distractors. Sixteen newly admitted patients with an admitting diagnosis of psychotic major depression confirmed by two psychiatrists were enrolled in the study. Each patient conformed with all of the above described criteria. […] In the patients administered mifepristone, three two hundred milligram tablets per day were given for four days. […] The tablets were manufactured by Shanghai HuaLian Pharmaceuticals Co., Ltd., Shanghai, China (currently the sole commercial source of RU486). Both patients and the investigators are “blind” as to which compound (test mifepristone or placebo) the patient received.

[2] = one study; cited from earlier work
[3] = test system: patients with severe Cushing Syndrome; conditions: 400 to 800 mg per day; adrenal cancers and ectopic ACTH secretion from lung cancer; cited from earlier work
[4] = test system: patients with chronic severe depression; conditions: about 2.5 to 4.4 mg/kg per day, up to eight weeks; four patients; cited from earlier work
[5] = molecular target: T1, glucocorticoid (GR) receptor (Homo sapiens, UniProt P04150); conditions: cited from earlier work
T1 sequence (P04150 1-777): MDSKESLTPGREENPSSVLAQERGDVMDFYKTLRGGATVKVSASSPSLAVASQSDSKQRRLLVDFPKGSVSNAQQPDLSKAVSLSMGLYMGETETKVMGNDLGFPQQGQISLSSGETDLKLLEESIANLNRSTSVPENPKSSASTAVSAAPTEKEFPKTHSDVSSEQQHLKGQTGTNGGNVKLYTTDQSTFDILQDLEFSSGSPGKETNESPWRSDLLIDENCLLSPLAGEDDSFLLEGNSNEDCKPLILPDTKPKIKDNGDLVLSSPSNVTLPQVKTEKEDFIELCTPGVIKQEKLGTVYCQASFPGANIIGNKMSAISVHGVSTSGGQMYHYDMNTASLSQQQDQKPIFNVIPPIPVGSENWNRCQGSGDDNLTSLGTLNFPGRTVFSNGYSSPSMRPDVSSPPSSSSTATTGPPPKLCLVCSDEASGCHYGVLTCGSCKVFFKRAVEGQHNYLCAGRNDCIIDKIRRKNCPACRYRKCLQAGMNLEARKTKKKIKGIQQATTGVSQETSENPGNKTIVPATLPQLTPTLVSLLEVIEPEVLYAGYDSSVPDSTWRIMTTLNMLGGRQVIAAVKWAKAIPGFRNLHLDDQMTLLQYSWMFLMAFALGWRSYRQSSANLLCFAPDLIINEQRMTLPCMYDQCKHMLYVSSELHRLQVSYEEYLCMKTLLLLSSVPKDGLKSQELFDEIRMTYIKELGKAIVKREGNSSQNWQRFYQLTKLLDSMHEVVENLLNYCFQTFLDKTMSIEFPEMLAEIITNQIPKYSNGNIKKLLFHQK

[6] = molecular target: T2, progesterone receptor (Homo sapiens, UniProt P06401); conditions: cited from earlier work
T2 sequence (P06401 1-933): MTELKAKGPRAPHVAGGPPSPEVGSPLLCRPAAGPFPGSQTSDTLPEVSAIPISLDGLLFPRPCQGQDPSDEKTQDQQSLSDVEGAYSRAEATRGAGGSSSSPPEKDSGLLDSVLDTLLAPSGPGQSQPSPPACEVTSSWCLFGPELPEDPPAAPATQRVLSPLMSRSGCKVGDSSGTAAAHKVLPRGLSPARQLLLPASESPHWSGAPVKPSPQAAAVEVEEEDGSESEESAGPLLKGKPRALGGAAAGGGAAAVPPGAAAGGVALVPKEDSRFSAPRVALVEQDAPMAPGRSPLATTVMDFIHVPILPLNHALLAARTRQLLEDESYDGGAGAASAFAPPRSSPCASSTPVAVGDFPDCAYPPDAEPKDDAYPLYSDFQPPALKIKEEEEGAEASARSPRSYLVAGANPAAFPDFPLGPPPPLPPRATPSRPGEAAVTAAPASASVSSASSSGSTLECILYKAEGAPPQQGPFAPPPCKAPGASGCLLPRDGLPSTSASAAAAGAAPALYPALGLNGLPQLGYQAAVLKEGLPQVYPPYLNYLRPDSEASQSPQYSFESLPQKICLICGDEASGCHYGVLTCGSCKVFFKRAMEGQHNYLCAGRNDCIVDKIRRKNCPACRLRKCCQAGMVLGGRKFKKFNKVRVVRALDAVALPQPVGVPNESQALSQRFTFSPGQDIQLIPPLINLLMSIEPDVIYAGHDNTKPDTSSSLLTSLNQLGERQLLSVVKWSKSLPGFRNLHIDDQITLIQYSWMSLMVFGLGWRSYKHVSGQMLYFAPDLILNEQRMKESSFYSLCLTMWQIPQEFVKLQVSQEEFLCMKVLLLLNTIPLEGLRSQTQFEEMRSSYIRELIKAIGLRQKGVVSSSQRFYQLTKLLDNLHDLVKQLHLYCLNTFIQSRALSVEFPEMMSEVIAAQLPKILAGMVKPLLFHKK

For `CC#C[C@]1(O)CC[C@H]2[C@@H]3CCC4=CC(=O)CCC4=C3[C@@H](c3ccc(N(C)C)cc3)C[C@@]21C` [mifepristone, 17-beta-hydroxy-11-beta-(4-dimethyl-aminophenyl)-17-alpha-(1-propynyl)-estra-4,9-dien-3-one], the “adverse effects reported by patient or observed by raters or staff” value ([1]; 600 mg per day orally, four days) was “no adverse effects”, the psychiatric condition ([1]; 600 mg per day orally, four days, three patients completed, blind not broken) was “significant improvement” and the “Wallach Recognition Test: amelioration of psychosis” value ([1]; all individuals who received mifepristone) was “showed an amelioration of their psychosis”. For the same compound, the “HAM-D score after treatment” value ([1]; average, score after decline) was “about 13.5”, the “HAM-D score before treatment” value ([1]; average, starting score) was “about 26” and the “Brief Psychiatric Rating Scale (BPRS) score after treatment” value ([1]; score after decline) was “about 29.5”. The “Clinical Global Impression (CGI scale) score after treatment” value ([1]; score after drop, mildly depressed) was “about 3”, the “Brief Psychiatric Rating Scale (BPRS) score before treatment” value ([1]; starting score) was “about 40.5” and the “Clinical Global Impression (CGI scale) score before treatment” value ([1]; starting score, indicating markedly depressed) was “about 5”. For the same compound, the “fraction of the daily dose excreted in the urine” value [2] was “less than 0.5%”, the “effect on acute psychosis” value [3] was “useful in rapidly reversing acute psychosis” and the response to treatment [4] was “responded to treatment”. The GR antagonist activity [5] was “powerful antagonist” and the “progesterone receptor antagonist activity” value [6] was “powerful antagonist”.

For `CC#C[C@]1(O)CC[C@H]2[C@@H]3CCC4=CC(=O)CCC4=C3[C@@H](c3ccc(OCCN(C)C)cc3)C[C@@]21C` [RU009, 11-beta-(4 dimethyl-amninoethoxyphenyl)-17-alpha-(propynyl-17beta-hydroxy-4,9-estradien-3-one)], the GR antagonist activity [5] is listed as “GR antagonist effects”.
